Reference: ChEMBL document CHEMBL1201862, “PubChem BioAssay data set” (2004)
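Where inhibition never reached the appropriate level, the endpoint shown equals the highest concentration tested. Otherwise, values were interpolated linearly from a five-concentration, 48-hour dose response in 96-well plates. GI50 is the concentration that inhibits growth by half.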 Active and inactive are the calls of the source. Rule as the data show it: active = GI50 up to about 1.1 µM and inactive = higher.

Columns and labels:
Assay in all cases: growth of human tumour cells (NCI), 48 h
786-0 = system: 786-0
ACHN = system: ACHN
CAKI-1 = system: CAKI-1
K562 = system: K562
KM12 = system: KM12
LOX IMVI = system: LOX IMVI
MDA-MB-231 = system: MDA-MB-231
MDA-MB-435 = system: MDA-MB-435
Malme-3M = system: Malme-3M
NCI-H226 = system: NCI-H226
NCI/ADR-RES = system: NCI/ADR-RES
OVCAR-4 = system: OVCAR-4
PC-3 = system: PC-3
SF-539 = system: SF-539
SK-MEL-2 = system: SK-MEL-2
SNB-19 = system: SNB-19
SR = system: SR
UO-31 = system: UO-31
RXF 393 = system: RXF 393

| SMILES | GI50 (786-0) | GI50 (ACHN) | GI50 (CAKI-1) | GI50 (K562) | GI50 (KM12) | GI50 (LOX IMVI) | GI50 (MDA-MB-231) | GI50 (MDA-MB-435) | GI50 (Malme-3M) | GI50 (NCI-H226) | GI50 (NCI/ADR-RES) | GI50 (OVCAR-4) | GI50 (PC-3) | GI50 (SF-539) | GI50 (SK-MEL-2) | GI50 (SNB-19) | GI50 (SR) | GI50 (UO-31) | GI50 (RXF 393) |
| --- | --- | --- | --- | --- | --- | --- | --- | --- | --- | --- | --- | --- | --- | --- | --- | --- | --- | --- | --- |
| Cn1c(=O)cc(N2CCCC2)[nH]c1=O | > 100 µM (inactive) | > 100 µM (inactive) | > 100 µM (inactive) | > 100 µM (inactive) | > 100 µM (inactive) | > 100 µM (inactive) | > 100 µM (inactive) | > 100 µM (inactive) | > 100 µM (inactive) | > 100 µM (inactive) | > 100 µM (inactive) | > 100 µM (inactive) | > 100 µM (inactive) | > 100 µM (inactive) | > 100 µM (inactive) | > 100 µM (inactive) | > 100 µM (inactive) |  |  |
| COc1cccc2c1OC1c3ccccc3OCC1C2 (centres undefined) | > 100 µM (inactive) |  | > 100 µM (inactive) | > 100 µM (inactive) | > 100 µM (inactive) | > 100 µM (inactive) | > 100 µM (inactive) | > 100 µM (inactive) | > 100 µM (inactive) | > 100 µM (inactive) | 34.6 µM (inactive) |  | 82.6 µM (inactive) | > 100 µM (inactive) | > 100 µM (inactive) |  | > 100 µM (inactive) | 48 µM (inactive) |  |
| O=c1[nH]nc(Nc2ccc(Cl)cc2)c2nnn(-c3ccc([N+](=O)[O-])cc3)c12 | 17.1 µM (inactive) | 43.3 µM (inactive) | 39.5 µM (inactive) | 6.35 µM (inactive) | 26.4 µM (inactive) | 14.5 µM (inactive) | 42.4 µM (inactive) | 30.1 µM (inactive) | 26.1 µM (inactive) | 42.1 µM (inactive) | 23.1 µM (inactive) | 23.8 µM (inactive) | 18.3 µM (inactive) | 17.5 µM (inactive) | 24.2 µM (inactive) | 30.9 µM (inactive) | 28.1 µM (inactive) |  |  |
| CN(Cc1cnc2nc(N)nc(N)c2n1)c1ccc(C(=O)NCCCS(=O)(=O)O)cc1 | > 100 µM (inactive) | > 100 µM (inactive) |  | > 100 µM (inactive) | > 100 µM (inactive) | 75.9 µM (inactive) | > 100 µM (inactive) | > 100 µM (inactive) | > 100 µM (inactive) | > 100 µM (inactive) | > 100 µM (inactive) | > 100 µM (inactive) | > 100 µM (inactive) | > 100 µM (inactive) | > 100 µM (inactive) | > 100 µM (inactive) | 37.6 µM (inactive) | > 100 µM (inactive) |  |
| CN(Cc1c2ccccc2cc2ccccc12)S(=O)(=O)c1ccc(-c2c3nc(c(-c4ccc(S(=O)(=O)N(C)Cc5c6ccccc6cc6ccccc56)cc4)c4ccc([nH]4)c(-c4ccc(S(=O)(=O)N(C)Cc5c6ccccc6cc6ccccc56)cc4)c4nc(c(-c5ccc(S(=O)(=O)N(C)Cc6c7ccccc7cc7ccccc67)cc5)c5ccc2[nH]5)C=C4)C=C3)cc1 | 53.1 µM (inactive) | > 100 µM (inactive) | > 100 µM (inactive) | > 100 µM (inactive) | > 100 µM (inactive) | > 100 µM (inactive) | > 100 µM (inactive) | > 100 µM (inactive) | > 100 µM (inactive) |  | > 100 µM (inactive) | > 100 µM (inactive) | > 100 µM (inactive) | 99.1 µM (inactive) | > 100 µM (inactive) | 44 µM (inactive) | > 100 µM (inactive) | > 100 µM (inactive) | 42.1 µM (inactive) |
| Oc1cccc2c1[nH]c1c(C3=C[C@@]4(O)CC/C=C\CCCCN5CC[C@@H]3[C@]3(CC6/C=C\CCCCN6[C@H]34)C5)nccc12 (some centres undefined) | 0.659 µM (active) | 1.1 µM (active) | 1.67 µM (inactive) | 0.607 µM (active) | 1.55 µM (inactive) | 0.736 µM (active) | 1.19 µM (inactive) | 0.798 µM (active) | 1.6 µM (inactive) | 2.21 µM (inactive) | 2.17 µM (inactive) | 0.679 µM (active) | 0.738 µM (active) | 1.71 µM (inactive) | 1.47 µM (inactive) | 2.69 µM (inactive) | 0.578 µM (active) | 1.44 µM (inactive) |  |
| CCCc1c(O)nc2ccccc2c1O | > 100 µM (inactive) | > 100 µM (inactive) | > 100 µM (inactive) | > 100 µM (inactive) | > 100 µM (inactive) | > 100 µM (inactive) | > 100 µM (inactive) | > 100 µM (inactive) | > 100 µM (inactive) | > 100 µM (inactive) | > 100 µM (inactive) | > 100 µM (inactive) | > 100 µM (inactive) | > 100 µM (inactive) |  | > 100 µM (inactive) | > 100 µM (inactive) | > 100 µM (inactive) |  |
| COc1ccc2c(c1)-c1[nH]c3ccc(OC)cc3c1CC2 | 17.5 µM (inactive) | 19.6 µM (inactive) | 18.8 µM (inactive) | 8.99 µM (inactive) | 4.86 µM (inactive) | 15.2 µM (inactive) | 17.3 µM (inactive) | 17.4 µM (inactive) | 15 µM (inactive) | 11.8 µM (inactive) | 11.4 µM (inactive) | 14.9 µM (inactive) | 11.4 µM (inactive) | 18.2 µM (inactive) | 14.5 µM (inactive) | 14.8 µM (inactive) | 13.6 µM (inactive) | 15.2 µM (inactive) |  |
| COC(=O)c1c2c(c3[nH]c4ccccc4c3c1C(=O)OC)C(=O)C1=C(C2=O)C2(Cl)C(Cl)C(Cl)C1(Cl)C2(Cl)Cl (centres undefined) | 2.68 µM (inactive) | 1.92 µM (inactive) | 3.18 µM (inactive) | 2.01 µM (inactive) | 2.54 µM (inactive) | 1.85 µM (inactive) | 1.85 µM (inactive) | 1.07 µM (active) | 1.82 µM (inactive) |  | 2.62 µM (inactive) | 1.84 µM (inactive) | 1.86 µM (inactive) | 2.07 µM (inactive) |  | 3.4 µM (inactive) | 0.489 µM (active) | 2.82 µM (inactive) | 1.71 µM (inactive) |
| COc1ccccc1N1C(=O)/C(=C\c2cccc(Oc3ccccc3)c2)SC1c1ccccc1 (centres undefined) | 39.2 µM (inactive) | 35.5 µM (inactive) | > 100 µM (inactive) | 15 µM (inactive) | 42.6 µM (inactive) | 21.6 µM (inactive) | > 100 µM (inactive) | 28.6 µM (inactive) | 37.6 µM (inactive) |  | 59.6 µM (inactive) | 30.6 µM (inactive) | 58.5 µM (inactive) | 34.5 µM (inactive) | 29.9 µM (inactive) | 31 µM (inactive) | 19.6 µM (inactive) | 51.3 µM (inactive) | 56.9 µM (inactive) |
| CCC(CN(C)C)C(=O)c1ccco1 (centres undefined) | > 100 µM (inactive) | > 100 µM (inactive) | > 100 µM (inactive) | > 100 µM (inactive) | > 100 µM (inactive) | > 100 µM (inactive) | > 100 µM (inactive) | > 100 µM (inactive) | 41.4 µM (inactive) |  | > 100 µM (inactive) | > 100 µM (inactive) | > 100 µM (inactive) |  | > 100 µM (inactive) | > 100 µM (inactive) | > 100 µM (inactive) | > 100 µM (inactive) | > 100 µM (inactive) |
